System: H. pylori clinical isolate 1735 (HP-1735)
Experiment: Antibacterial sensitivity / zone of growth inhibition by well/disc diffusion method
Assay type: cell-based, Helicobacter pylori
Conditions: for zone of growth inhibition: clinical isolate 1735; for Antibiotic susceptibility (disc diffusion): strain HP-1735
[1] = antibiotic concentration 30 µg/disk

| SMILES | zone of growth inhibition [1] [mm] | Antibiotic susceptibility (disc diffusion) (amoxicillin criterion) | zone of growth inhibition compared with dietary antibacterial composition (H. pylori clinical isolate 1735) | zone of growth inhibition (antibiotic concentration 15 µg/disk) [mm] | Antibiotic susceptibility (disc diffusion) (clarithromycin and tetracycline criterion) |
| --- | --- | --- | --- | --- | --- |
| CC1(C)S[C@@H]2[C@H](NC(=O)[C@H](N)c3ccc(O)cc3)C(=O)N2[C@H]1C(=O)O [AMO, Amoxicillin] | 50 | sensitive |  |  |  |
| CC[C@H]1OC(=O)[C@H](C)[C@@H](O[C@H]2C[C@@](C)(OC)[C@@H](O)[C@H](C)O2)[C@H](C)[C@@H](O[C@@H]2O[C@H](C)C[C@H](N(C)C)[C@H]2O)[C@](C)(OC)C[C@@H](C)C(=O)[C@H](C)[C@@H](O)[C@]1(C)O [CLA, Clarithromycin] |  |  | less zone of growth inhibition | 8 | resistant (≦30 mm for clarithromycin and tetracycline) |
| CN(C)[C@@H]1C(O)=C(C(N)=O)C(=O)[C@@]2(O)C(O)=C3C(=O)c4c(O)cccc4[C@@](C)(O)[C@H]3C[C@@H]12 [TET, Tetracycline] | 45 |  |  |  |  |

— patent publication US20090175842A1, “DIETARY ANTI-BACTERIAL COMPOSITIONS” (priority 2006, published 2009)
